According to patent publication US20030166656A1, “Therapeutic or preventive medicines for mood disorders or anxiety disorders” (priority 2003, published 2003):

Legend:
male ICR mice = experiment: Forced swim test in mice (antidepressant effect); type: in vivo, mouse; conditions: for antidepressant effect: overall conclusion in words, forced swim test
Text: (§1) The isoquinoline derivative rep-resented by formula (I) has a marked effect in the forced swim test, which is the animal model for mood disorder, and in the elevated plus-maze test, which is the animal model for anxiety disorder. Thus, the isoquinoline derivative can be used as a drug for curing or preventing mood disorder or anxiety disorder of mammal and, in particular, human beings. It may also be used in manufacturing of a medicament for curing or preventing mood disorder or anxiety disorder. The evaluation using the above-described animal models can be conducted by a method described in published references [Nature vol. 266, 730 (1977) or Jpn. J. Psychopharmacol vol. 15, 125 (1995)], but the method is not limited to this.
Assessment of antidepressant effect by the forced swim test in mice
In the experiment, male ICR mice were used. In the forced swim test, the tank for forced swim used was a transparent cylindrical tank made of plastic (inner diameter: 10 cm, height: 30 cm), and water at 25° C. was contained up to 14 cm in height. A mouse was placed in water, and its swimming time during 2 to 6 minutes after placement was measured. The drug was subcutaneously administered 30 minutes before testing. The vertical axis indicates the swimming time (sec) during the measurement time (4 min). The open column indicates a saline-treated group and the hatched columns indicate Compound 1 treatment groups. All data are indicated by average ±standard error. In a significance test, the difference was assumed to be significant at a significance level of 5% or less by Dunnett's multiple comparison. In the test, the drug is assumed to have an antidepressant effect when there is an increase in swimming time under administration.

male SD rats = experiment: Elevated plus-maze test in rats (antianxiety effect); type: in vivo, rat; conditions: for antianxiety effect: overall conclusion in words, elevated plus-maze test
Text: as §1
Assessment of Antianxiety Effect by the Elevated Plus-Maze Test in Rats
The experiment was conducted on male SD rats. In the elevated plus-maze test, the elevated plus-maze (manufactured by NeuroScience, Inc.) consisting of closed arms and open arms was used. In the experiment, a rat was placed on an open arm 30 minutes after the drug administration (subcutaneous administration), and the number of entries to the open and closed arms and the time spent in the open arms were measured. The test was conducted for 3 minutes. The rat was assumed to have made entries when all four legs have entered the arm. The ratio of the time spent in the open arms and the ratio of the entries to the open arms were calculated according to the following equations:
Ratio of the time spent in the open arms (%)={(time spent in the open arms)/(total time)}×100
Ratio of the entries to the open arms (%)={(number of entries to the open arms)/(total number of entries)}×100
The vertical axis on the left indicates the ratio of the time spent in the open arms (%) and the ratio of the entries to the open arms (%). The vertical axis on the right indicates the total number of entries. The horizontal axis indicates a control group and treatment groups. Open columns indicate the ratio of the time spent in the open arms (%) and hatched columns indicate the ratio of the entries to the open arms (%). Closed circles indicate the total number of entries. All data are indicated by average ±standard error. In a significance test, the difference was assumed to be significant at a significance level of 5% or less by Dunnett's multiple comparison. In the test, the drug is assumed to have an antianxiety effect when there are an increase in time spent on open arms and an increase in ratio of entries to open arms under administration.

[1] = FIG. 1, treatment groups vs saline-treated control, s.c., Dunnett's multiple comparison, 5% level

## Cc1c2c(nc3ccccc13)C[C@@]1(c3cccc(O)c3)CCN(C)C[C@@H]1C2 (relative stereo) [Compound 3, 2-methyl-4aα-(3-hydroxyphenyl)-11-methyl-1,2,3,4,4a,5,12,12aβ-octahydro-quinolino [2,3-g]isoquinoline]
Male ICR mice
  antidepressant effect: significant antidepressant effect
Male SD rats
  antianxiety effect: significant antianxiety effects

## CN1CC[C@]2(c3cccc(O)c3)Cc3nc4ccccc4c(N)c3C[C@H]2C1 (relative stereo) [Compound 5, 2-methyl-4aα-(3-hydroxyphenyl)-11-amino-1,2,3,4,4a,5,12,12aβ-octahydro-quinolino,[2,3-g]isoquinoline]
Male ICR mice
  antidepressant effect: significant antidepressant effect
Male SD rats
  antianxiety effect: significant antianxiety effects

## Oc1cccc([C@]23CCN(CCc4ccccc4)C[C@@H]2Cc2cc4ccccc4nc2C3)c1 (relative stereo) [Compound 6, 2-phenethyl-4aα-(3-hydroxyphenyl)-1,2,3,4,4a,5,12,12aβ-octahydro-quinolino [2,3-g]isoquinoline]
Male ICR mice
  antidepressant effect: significant antidepressant effect
Male SD rats
  antianxiety effect: significant antianxiety effects

## CN1CC[C@]2(c3cccc(O)c3)Cc3nc4ccccc4cc3C[C@@H]2C1 [Compound 1, (4aS,12aS)-2-methyl-4a-(3-hydroxyphenyl)-1,2,3,4,4a,5,12,12a-octahydroquinolino [2,3-g]isoquinoline]
Male ICR mice; FIG. 2, treatment groups vs saline-treated control, s.c., Dunnett's multiple comparison, 5% level
  swimming time: dose-dependent significant increase
Male ICR mice
  antidepressant effect: confirmed to have an antidepressant effect
Male SD rats; [1]
  ratio of the entries to open arms: dose-dependent significant increase
  time spent in open arms: dose-dependent significant increase
Male SD rats
  antianxiety effect: confirmed to have an antianxiety effect
